Laboratory results as given in patent US12636313B2, “Nutraceutical or pharmaceutical composition comprising iron pyrophosphate for treating and/or preventing iron deficiency conditions or diseases” (NEILOS S.R.L., priority 2019, dated 2026).

Columns and labels:
[1] = system: subjects with advanced cancer and plasma iron levels below 60 μg/dL; details: 30 mg/day, 30-day treatment, 42 subjects with advanced cancer; cited from earlier work
[2] = after 120 minutes in sham gastric environment, 0.1 M HCl, 37° C., 75 rpm, six replicates
Description: 1 g of sample was weighed and introduced into the container of the dissolving apparatus containing 900 mL of 0.1 M HCl. The dissolution was performed for 2 h at 37° C. and 75 rpm. After dissolution, 1 mL of sample was diluted to 50 mL with 0.1 M HCl. The preparation was performed in six replicates for each sample.

In the case of `O=P([O-])([O-])OP(=O)([O-])[O-].O=P([O-])([O-])OP(=O)([O-])[O-].O=P([O-])([O-])OP(=O)([O-])[O-].[Fe+3].[Fe+3].[Fe+3].[Fe+3]` [iron pyrophosphate as such, iron pyrophosphate], the ferritinaemia level [1] is listed as “enhanced”, the haemoglobinaemia level [1] is listed as “enhanced” and the side effects [1] is listed as “without appearance of side effects”. For the same molecule, the sideraemia level [1] was “enhanced” and the “amount of iron released” value [2] was 7.5 g per 100 g of formulation.
